In patent US8663602B2, “Method for high-throughput screening of compounds and combinations of compounds for discovery and quantification of actions, particularly unanticipated therapeutic or toxic actions, in biological systems” (The Regents of the University of California, priority 2003, dated 2014):
Entries after “also recorded” stand apart in the source; their conditions may differ.

Key:
[1] = Food intake and body weight of mice on 2H2O; type: in vivo; details: 0.012 ml/gm injection then 4% 2H2O in drinking water
Method: Mice were injected with ^2H2O (deuterated water) 0.012 ml/gm. […] Twenty-one days following the start of ^2H2O administration, mice were fasted for four hours, anesthetized with isoflurane and exsanguinated via heart puncture.

[2] = Tolerability of maintained 2H2O body water enrichment; type: in vivo, humans; details: 1-10% of body water labeled, weeks or months; >100 people; rapid changes in enrichment prevented
Text: Relatively high body water enrichments of ^2H2O (e.g., 1-10% of the total body water is labeled) may be achieved relatively inexpensively using the techniques of the invention. This water enrichment is relatively constant and stable as these levels are maintained for weeks or months in humans and in experimental animals without any evidence of toxicity. This finding in a large number of human subjects (>100 people) is contrary to previous concerns about vestibular toxicities at high doses of ^2H2O. The Applicant has discovered that as long as rapid changes in body water enrichment are prevented (e.g., by initial administration in small, divided doses), high body water enrichments of ^2H2O can be maintained with no toxicities. For example, the low cost of commercially available ^2H2O allows long-term maintenance of enrichments in the 1-5% range at relatively low expense (e.g., calculations reveal a lower cost for 2 months labeling at 2% ^2H2O enrichment, and thus 7-8% enrichment in the alanine precursor pool, than for 12 hours labeling of ^2H-leucine at 10% free leucine enrichment, and thus 7-8% enrichment in leucine precursor pool for that period).

[3] = test system: neurons; assay: Neuron turnover (fractional replacement) in mice by 2H2O labeling and GC/MS of DNA from isolated neurons; type: in vivo
Method: Groups of mice (n=5/group) were given a bolus of ^2H2O (Spectra Isotopes, Columbia, Md.) to 5% ^2H2O in body water and were given 8% ^2H2O as drinking water. Mice were maintained on ^2H2O for 45 days, during which period they also received injections every other day of either lipopolysaccharide (LPS) (Sigma, St. Louis, Mo.) in saline at a dose of 1 or 4 mg/kg body weight, or no injection.
Mice were euthanized with carbon dioxide, and their brains were removed. Hippocampi were dissected out, trypsinized, and stained with tetanus toxoid (Ttx), a specific marker for neurons, and then stained with a FITC labeled anti-Ttx antibody (Roche, Basel Switzerland). […]

[4] = test system: neuroprogenitor cells; details: chronic exposure to LPS; Ekdahl et al. 2003; cited from earlier work
[5] = test system: mammary epithelial cell; assay: Mammary epithelial cell (MEC) proliferation in intact and ovariectomized rats by 2H2O labeling, GC/MS; type: in vivo, Sprague-Dawley rats; details: for MEC proliferation: all doses, treated and labeled for 7 days, in the presence or absence of estrogen; for MEC proliferation rates: even the lowest dose; for mammary epithelial cell proliferation: intact female rats and ovariectomized rats, very low doses
[6] = test system: liver cell; assay: Liver cell proliferation in mice during griseofulvin administration (2H2O labeling); type: in vivo; details: 1% griseofulvin in chow (low dose, NOEL), 5 days
Method: Cell proliferation was measured as described, supra.

[7] = Plasma liver enzymes in mice given griseofulvin; type: in vivo; details: 1% dose; data not shown
[8] = test system: adipocytes; assay: Adipocyte proliferation in ob/ob mice by 2H2O labeling of adipose cell DNA; type: in vivo; details: murine leptin 2 μg/day s.c. osmotic pump, 21 days 2H2O
Text: Four week old, female, C57/bl6j mice (Jackson Labs Bar Harbor, […].) were studied: C57/bl6j ^+/? controls (con), ad libitum fed C57/bl6j^lep-/lep- (ob/ob), leptin treated ob/ob (ob-lep) and food restricted ob/ob (ob-r). Mice were housed individually in hanging wire cages and fed AIN 93 purified diets (Bio Serv, Frenchtown, N.J.). Mice were given 3 days to acclimate to the environment, after which mice grew normally. All treatments and interventions began 5 days prior to the start of labeling with ^2H2O.
Ob-lep mice received murine leptin subcutaneously at a dose of 2 μg/day (Amgen, Thousand Oaks Calif.) via a 28 day Alzet mini osmotic pump (Alza Corp. Palo Alto Calif.).
Mice were injected with ^2H2O (deuterated water) 0.012 ml/gm. […]
The frozen slurry of adipocytes was lyophilized, the dry weight of the sample was determined and then the samples were digested and DNA isolated as described elsewhere (Neese, R. A. et al. Advances in the Stable Isotope-Mass Spectrometric Measurement of DNA Synthesis and Cell Proliferation. Anal Biochem 298, 189-195. (2001)) using Quiagen DNeasy tissue kits. The yield of DNA from each sample was determined with a Pharmacia Biotec Genequant II spectrophotometer. […]
PTA samples were analyzed for incorporation of deuterium on a HP model 5973 MS with a 6890 GC and auto-sampler (Agilent, Palo Alto, Calif.). […]

[2H]O[2H] [^2H2O, deuterated water]
food intake or body weight [1]: no impact on food intake or body weight | toxicity of maintained body water enrichment [2]: no toxicities

lipopolysaccharide [LPS]
neuron turnover (fractional replacement of neurons) ([3]; LPS 1 or 4 mg/kg injected every other day, 45 days with 2H2O, vs control, p<0.05, dose dependent): statistically significant increase in neuron turnover; also recorded: turnover more rapidly | calculated fractional synthesis rate (f) of new neurons ([3]; after exposure to LPS, control approximately 7%): ~14% | neurogenesis [4]: neurogenesis was observed to decrease

O=C(c1ccc(OCCN2CCCCC2)cc1)c1c(-c2ccc(O)cc2)sc2cc(O)ccc12 [raloxifene]
MEC proliferation [5]: Significant reductions of MEC proliferation | MEC proliferation rates [5]: efficacious anti-proliferative agents | mammary epithelial cell proliferation [5]: decrease in mammary epithelial cell proliferation

CC/C(=C(\c1ccccc1)c1ccc(OCCN(C)C)cc1)c1ccccc1 [tamoxifen]
MEC proliferation [5]: Significant reductions of MEC proliferation | MEC proliferation rates [5]: efficacious anti-proliferative agents | mammary epithelial cell proliferation [5]: decrease in mammary epithelial cell proliferation

COC1=CC(=O)C[C@@H](C)[C@]12Oc1c(Cl)c(OC)cc(OC)c1C2=O [griseofulvin]
liver cell proliferation [6]: increased liver cell proliferation | plasma liver enzymes [7]: did not induce elevated levels of plasma liver enzymes

B1: leptin: murine leptin (Amgen) given subcutaneously via osmotic pump (protein, UniProt P41160 22-167, looked up)
Leptin: VPIQKVQDDTKTLIKTIVTRINDISHTQSVSAKQRVTGLDFIPGLHPILSLSKMDQTLAVYQQVLTSLPSQNVLQIANDLENLRDLLHLLAFSKSCSLPQTSGLQKPESLDGVLEASLYSTEVVALSRLQGSLQDILQQLDVSPEC
adipocyte proliferation (fat cell proliferation) [8]: decrease in adipocyte proliferation
